In US12534469B2 (CHILDREN'S HOSPITAL MEDICAL CENTER, priority 2020, dated 2026):
Like-named read-outs stand apart in the source and are kept apart here.

Legend:
MOLM14 F691L cells = assay: MOLM14 F691L cell viability assay (Cell Titer Glo); format: cell-based; settings: Homo sapiens, MOLM-14, 48 h
Procedure: (§1) Both cell lines have activated FLT3 receptors, each of which carry additional resistance mutations in the kinase domain (D835Y and F691L, respectively).
(§2) MOLM14 D835Y and MOLM14 F691L cells were grown in RPMI-1640 media supplemented with 20% fetal bovine serum (FBS). For viability/cytotoxicity assessments, cells were seeded into 1536-well white polystyrene tissue culture-treated Greiner plates using a Multidrop Combi dispenser (ThermoFisher), in final volume 5 μL of growth media per well, at a density of 1000 cells per well. After cell addition, 23 nL of test compound were transferred into individual wells (22 doses tested for each test compound, with a 1:2 dilution series starting at 10 μM) via a 1536 pin-tool. Bortezomib (final concentration 2.3 μM) was used as a positive control for cell cytotoxicity. Plates were incubated for 48 hours at standard incubator conditions covered by a stainless steel gasketed lid to prevent evaporation. 48 hours post compound addition, 3 μL of Cell Titer Glo (Promega) were added to each well and plates were incubated at room temperature for 15 minutes with the stainless-steel lid in place. Luminescence readings were taken using a Viewlux imager (PerkinElmer) with a 2 second exposure time per plate.

MOLM14 D835Y cells = assay: MOLM14 D835Y cell viability assay (Cell Titer Glo); format: cell-based; settings: Homo sapiens, MOLM-14, 48 h
Procedure: as §1, §2

IRAK1 = target: T1, IRAK1 (Homo sapiens, UniProt P51617); assay: RBC HotSpot Kinase Assay, IRAK1; format: biochemical
T1 construct: purchased Reaction Biology (RBC HotSpot Kinase Assay)
T1 sequence (P51617 whole entry): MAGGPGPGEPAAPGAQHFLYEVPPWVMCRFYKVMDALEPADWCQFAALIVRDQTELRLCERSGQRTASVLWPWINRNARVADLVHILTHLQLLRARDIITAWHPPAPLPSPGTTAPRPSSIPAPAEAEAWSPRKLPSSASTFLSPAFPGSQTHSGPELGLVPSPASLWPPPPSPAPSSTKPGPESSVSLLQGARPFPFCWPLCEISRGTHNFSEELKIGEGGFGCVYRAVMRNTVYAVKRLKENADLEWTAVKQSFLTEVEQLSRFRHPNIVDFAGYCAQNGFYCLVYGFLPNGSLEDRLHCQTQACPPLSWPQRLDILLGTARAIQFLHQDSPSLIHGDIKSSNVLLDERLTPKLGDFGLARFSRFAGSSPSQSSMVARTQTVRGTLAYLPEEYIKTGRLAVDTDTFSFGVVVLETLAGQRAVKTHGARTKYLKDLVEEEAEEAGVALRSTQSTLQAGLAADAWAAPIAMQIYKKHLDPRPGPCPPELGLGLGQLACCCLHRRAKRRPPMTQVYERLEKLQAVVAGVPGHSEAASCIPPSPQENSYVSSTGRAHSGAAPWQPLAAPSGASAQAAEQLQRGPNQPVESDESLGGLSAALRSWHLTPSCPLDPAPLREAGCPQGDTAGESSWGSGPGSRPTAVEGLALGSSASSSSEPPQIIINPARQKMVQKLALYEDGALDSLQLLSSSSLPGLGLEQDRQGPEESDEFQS
Procedure, shortened: (§3)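 Radiometric filter-binding (HotSpot) activity assay on isolated recombinant kinase, possibly truncated or catalytic domain only, in 20 mM Hepes pH 7.5, 10 mM MgCl2, 1 mM EGTA, 2 mM DTT, 1% DMSO. Compound preincubated 20 min with kinase and substrate, then ^33P-ATP added. Reaction 2 h at room temperature, read by P81 filter binding.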

IRAK4 = target: T2, IRAK4 (Homo sapiens, UniProt Q9NWZ3); assay: RBC HotSpot Kinase Assay, IRAK4; format: biochemical; parameters: purchased Reaction Biology (RBC HotSpot Kinase Assay)
T2 sequence (Q9NWZ3 1-460): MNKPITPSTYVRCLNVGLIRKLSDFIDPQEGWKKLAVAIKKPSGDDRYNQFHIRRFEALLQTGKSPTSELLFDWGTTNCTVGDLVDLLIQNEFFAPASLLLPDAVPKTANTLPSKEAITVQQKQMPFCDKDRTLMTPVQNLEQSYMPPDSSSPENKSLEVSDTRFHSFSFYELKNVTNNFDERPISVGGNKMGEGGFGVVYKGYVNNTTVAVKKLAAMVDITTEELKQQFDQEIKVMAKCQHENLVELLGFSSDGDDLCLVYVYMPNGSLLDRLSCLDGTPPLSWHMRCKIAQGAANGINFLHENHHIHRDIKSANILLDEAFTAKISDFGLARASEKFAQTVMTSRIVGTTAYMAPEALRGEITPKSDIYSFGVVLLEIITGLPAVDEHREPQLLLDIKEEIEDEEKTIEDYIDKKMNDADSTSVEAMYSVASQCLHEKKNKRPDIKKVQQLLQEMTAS
Procedure, shortened: as §3

FLT3 = target: T3, FLT3 (Homo sapiens, UniProt P36888); assay: RBC HotSpot Kinase Assay, FLT3; format: biochemical
T3 construct: purchased Reaction Biology (RBC HotSpot Kinase Assay)
T3 sequence (P36888 564-958 limits assumed): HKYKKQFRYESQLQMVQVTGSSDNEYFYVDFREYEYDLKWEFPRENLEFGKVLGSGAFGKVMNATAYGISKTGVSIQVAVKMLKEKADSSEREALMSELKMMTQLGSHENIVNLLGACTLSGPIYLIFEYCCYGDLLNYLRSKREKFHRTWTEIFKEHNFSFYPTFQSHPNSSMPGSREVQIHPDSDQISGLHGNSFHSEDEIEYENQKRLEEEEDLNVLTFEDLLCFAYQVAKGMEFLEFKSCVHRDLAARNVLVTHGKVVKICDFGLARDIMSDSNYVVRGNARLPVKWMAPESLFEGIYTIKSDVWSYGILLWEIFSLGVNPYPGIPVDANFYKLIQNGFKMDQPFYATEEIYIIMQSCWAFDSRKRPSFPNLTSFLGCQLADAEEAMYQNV
Procedure, shortened: as §3

THP-1-Blue NF-κB cells = assay: NF-kB SEAP reporter assay in THP-1-Blue NF-κB cells; format: cell-based; settings: 24 hours
Procedure: THP-1-Blue NF-κB cells (InvivoGen) carrying a stable integrated NF-κB-inducible secreted embryonic alkaline phosphatase (SEAP) reporter construct were plated at a concentration of 1×10^5 cells per well. The cells were stimulated with Pam3CSK4 (1 ng/mL) or hIL1B (1 ng/mL). After 10-20 minutes, the cells were then treated with vehicle (DMSO) or serial dilutions of the test compounds (10 doses tested for each test compound, with a 1:10 dilution series starting at 1 μM or 3 μM) with a final volume of 200 μL for 24 hours at 37° C. After 24 hours, the cells were centrifuged and 20 μL supernatant was incubated with 180 μL QUANTI-Blue reagent at 37° C. for 30-60 minutes. The levels of NF-κB-induced gene expression were measured in a microplate reader at 620 nm.

[1] = stimulated with Pam3CSK4 (1 ng/mL), read-out: NF-κB Pam3SCK4 IC50
[2] = stimulated with hIL1B (1 ng/mL), read-out: NF-κB IL1B IC50

Row | IC50 (MOLM14 F691L cells) [µM] | IC50 (MOLM14 D835Y cells) [µM] | IC50 (IRAK1) [µM] | IC50 (IRAK4) [µM] | IC50 (FLT3) [µM] | IC50 (THP-1-Blue NF-κB cells; [1]) [µM] | IC50 (THP-1-Blue NF-κB cells; [2]) [µM] | Compound
1 | 1.22 | 0.231 | 0.272 | 0.007 | < 0.0005 | – | – | COc1cc2ncc(-c3cc(F)cc(N[C@H]4CNCC[C@@H]4F)n3)n2nc1C1CC1 [Compound 105, 6-(6-cyclopropyl-7-methoxyimidazo[1,2-b]pyridazin-3-yl)-4-fluoro-N-((3S,4S)-4-fluoropiperidin-3-yl)pyridin-2-amine]
2 | 1.09 | 0.077 | 0.025 | < 0.0005 | < 0.0005 | 0.02 | 0.046 | COc1cc2ncc(-c3cccc(N[C@H]4CNC[C@@H]4F)n3)n2nc1C(F)F [Compound 116, 6-(6-(difluoromethyl)-7-methoxyimidazo[1,2-b]pyridazin-3-yl)-N-((3S,4S)-4-fluoropyrrolidin-3-yl)pyridin-2-amine]
3 | 1.37 | 0.109 | 0.383 | 0.004 | < 0.0005 | – | – | COc1cc2ncc(-c3cccc(N[C@@H]4CCCNC4)n3)n2nc1C(F)F [Compound 117, (R)-6-(6-(difluoromethyl)-7-methoxyimidazo[1,2-b]pyridazin-3-yl)-N-(piperidin-3-yl)pyridin-2-amine]
4 | 0.77 | 0.061 | 0.07 | 0.002 | < 0.0005 | 0.076 | 0.216 | COc1cc2ncc(-c3cccc(N[C@H]4CNCC[C@@H]4F)n3)n2nc1C(F)F [Compound 118, 6-(6-(difluoromethyl)-7-methoxyimidazo[1,2-b]pyridazin-3-yl)-N-((3S,4S)-4-fluoropiperidin-3-yl)pyridin-2-amine]
5 | 0.275 | 0.02 | 0.085 | < 0.0005 | < 0.0005 | – | – | COc1cc2ncc(-c3cccc(N[C@H]4CNCC[C@@H]4F)n3)n2nc1-c1cn[nH]c1 [Compound 120, N-((3S,4S)-4-fluoropiperidin-3-yl)-6-(7-methoxy-6-(1H-pyrazol-4-yl)imidazo[1,2-b]pyridazin-3-yl)pyridin-2-amine]
6 | 1.37 | 0.097 | 0.778 | 0.011 | 0.001 | – | – | COc1cc2ncc(-c3cccc(N[C@H]4CNC[C@@H]4F)n3)n2nc1-c1cnn(C)c1 [Compound 121, N-((3S,4S)-4-fluoropyrrolidin-3-yl)-6-(7-methoxy-6-(1-methyl-1H-pyrazol-4-yl)imidazo[1,2-b]pyridazin-3-yl)pyridin-2-amine]
7 | 0.686 | 0.049 | 0.537 | 0.037 | 0.0007 | – | – | COc1cc2ncc(-c3cccc(N[C@H]4CNCC[C@@H]4F)n3)n2nc1-c1cnn(C)c1 [Compound 122, N-((3S,4S)-4-fluoropiperidin-3-yl)-6-(7-methoxy-6-(1-methyl-1H-pyrazol-4-yl)imidazo[1,2-b]pyridazin-3-yl)pyridin-2-amine]
